The source made the active and inactive calls. The rule behind the calls is not given here.
Experiments:
[1] = Selectivity ratio of IC50 for antiproliferative activity against human A549 cells to IC50 for antiproliferative activity against human NCI-H1975 cells overexpressing EGFR L858R/T790M mutant; assay type: functional
A549 = assay: Antiproliferative activity against human A549 cells assessed as inhibition of cell growth incubated for 72 hrs by MTT assay; assay type: functional, cell-based; settings: A549, 72 h
[2] = Antiproliferative activity against human OVCAR-2 cells assessed as inhibition of cell growth incubated for 72 hrs by MTT assay; assay type: functional, cell-based; settings: OVCAR-2, 72 h
[3] = Antiproliferative activity against human U-87 MG cells assessed as inhibition of cell growth incubated for 72 hrs by MTT assay; assay type: functional, cell-based, U-87MG ATCC
MCF7 = assay: Antiproliferative activity against human MCF7 cells assessed as inhibition of cell growth incubated for 72 hrs by MTT assay; assay type: functional, cell-based; settings: MCF7, 72 h
HeLa [4] = assay: Antiproliferative activity against paclitaxel-resistant human HeLa cells assessed as inhibition of cell growth incubated for 72 hrs by MTT assay; assay type: functional, cell-based
NCI-H1975 = assay: Antiproliferative activity against human NCI-H1975 cells overexpressing EGFR L858R/T790M mutant assessed as inhibition of cell growth incubated for 72 hrs by MTT assay; assay type: functional, cell-based; settings: NCI-H1975, 72 h
HeLa [5] = assay: Antiproliferative activity against human HeLa cells assessed as inhibition of cell growth incubated for 72 hrs by MTT assay; assay type: functional, cell-based
[6] = Selectivity ratio of IC50 for antiproliferative activity against human HeLa cells to IC50 for antiproliferative activity against paclitaxel-resistant human HeLa cells; assay type: functional
[7] = Selectivity ratio of IC50 for antiproliferative activity against human MCF7 cells to IC50 for antiproliferative activity against human U-87 MG cells; assay type: functional
NCI-H460 = assay: Antiproliferative activity against human NCI-H460 cells assessed as inhibition of cell growth incubated for 72 hrs by MTT assay; assay type: functional, cell-based; settings: NCI-H460, 72 h
NCI-H2228 = assay: Antiproliferative activity against human NCI-H2228 cells assessed as inhibition of cell growth incubated for 72 hrs by MTT assay; assay type: functional, cell-based
[8] = molecular target: T1, Phosphatidylinositol 4,5-bisphosphate 3-kinase catalytic subunit alpha isoform (Homo sapiens, UniProt P42336); assay: Inhibition of PI3Kalpha (unknown origin) by kinase-glo luminescent assay
T1 sequence (P42336 whole entry, canonical isoform): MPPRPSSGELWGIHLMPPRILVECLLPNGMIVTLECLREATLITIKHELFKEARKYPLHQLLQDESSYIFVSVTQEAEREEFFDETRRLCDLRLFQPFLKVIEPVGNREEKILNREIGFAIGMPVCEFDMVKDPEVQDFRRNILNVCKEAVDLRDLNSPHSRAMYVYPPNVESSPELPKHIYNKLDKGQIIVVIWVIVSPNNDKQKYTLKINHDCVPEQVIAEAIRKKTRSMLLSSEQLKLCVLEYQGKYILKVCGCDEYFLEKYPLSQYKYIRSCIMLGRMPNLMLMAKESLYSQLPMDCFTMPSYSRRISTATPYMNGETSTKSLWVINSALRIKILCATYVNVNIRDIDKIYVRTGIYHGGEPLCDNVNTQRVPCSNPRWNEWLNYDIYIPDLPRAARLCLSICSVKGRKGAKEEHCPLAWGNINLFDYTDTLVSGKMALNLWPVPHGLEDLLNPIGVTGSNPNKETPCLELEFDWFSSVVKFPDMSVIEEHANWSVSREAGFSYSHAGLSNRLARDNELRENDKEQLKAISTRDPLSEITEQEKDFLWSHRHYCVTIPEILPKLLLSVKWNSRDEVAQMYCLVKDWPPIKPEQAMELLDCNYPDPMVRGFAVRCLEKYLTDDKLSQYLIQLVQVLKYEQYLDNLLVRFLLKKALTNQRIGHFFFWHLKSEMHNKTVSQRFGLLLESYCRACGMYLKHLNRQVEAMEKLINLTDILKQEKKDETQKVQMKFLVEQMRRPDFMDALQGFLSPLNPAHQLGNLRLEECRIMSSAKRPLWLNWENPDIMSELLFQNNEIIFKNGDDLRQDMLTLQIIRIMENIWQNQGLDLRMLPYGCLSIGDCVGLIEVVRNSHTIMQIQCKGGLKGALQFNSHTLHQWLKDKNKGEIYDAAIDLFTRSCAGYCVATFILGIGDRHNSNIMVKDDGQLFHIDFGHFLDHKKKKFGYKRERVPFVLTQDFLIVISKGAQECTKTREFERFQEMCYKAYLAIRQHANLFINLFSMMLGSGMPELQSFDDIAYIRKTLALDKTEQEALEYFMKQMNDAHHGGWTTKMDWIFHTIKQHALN

[9] = molecular target: T1, Phosphatidylinositol 4,5-bisphosphate 3-kinase catalytic subunit alpha isoform; assay: Inhibition of PI3Kalpha (unknown origin) at 1 uM by kinase-glo luminescent assay relative to control
[10] = molecular target: RAC-alpha serine/threonine-protein kinase (Homo sapiens) (UniProt P31749); assay: Inhibition of AKT1 (unknown origin) at 1 uM by kinase-glo luminescent assay relative to control
Sequence of RAC-alpha serine/threonine-protein kinase (Homo sapiens) (P31749 whole entry): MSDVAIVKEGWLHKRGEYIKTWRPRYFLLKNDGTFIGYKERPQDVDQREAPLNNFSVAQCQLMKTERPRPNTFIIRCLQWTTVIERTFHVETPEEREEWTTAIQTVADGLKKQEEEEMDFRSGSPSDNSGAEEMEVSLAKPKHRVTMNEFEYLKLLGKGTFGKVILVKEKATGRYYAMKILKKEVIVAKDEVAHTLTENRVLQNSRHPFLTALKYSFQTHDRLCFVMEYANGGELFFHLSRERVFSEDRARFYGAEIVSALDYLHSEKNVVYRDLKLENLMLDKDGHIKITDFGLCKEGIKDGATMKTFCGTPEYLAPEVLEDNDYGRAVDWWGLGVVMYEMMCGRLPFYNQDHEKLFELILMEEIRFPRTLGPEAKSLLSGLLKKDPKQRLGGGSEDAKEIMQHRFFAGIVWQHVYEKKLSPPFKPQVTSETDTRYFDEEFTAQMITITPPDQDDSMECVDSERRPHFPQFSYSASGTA

[11] = molecular target: Vascular endothelial growth factor receptor 2 (Homo sapiens) (UniProt P35968); assay: Inhibition of KDR (unknown origin) at 1 uM by kinase-glo luminescent assay relative to control
Sequence of Vascular endothelial growth factor receptor 2 (Homo sapiens) (P35968 whole entry): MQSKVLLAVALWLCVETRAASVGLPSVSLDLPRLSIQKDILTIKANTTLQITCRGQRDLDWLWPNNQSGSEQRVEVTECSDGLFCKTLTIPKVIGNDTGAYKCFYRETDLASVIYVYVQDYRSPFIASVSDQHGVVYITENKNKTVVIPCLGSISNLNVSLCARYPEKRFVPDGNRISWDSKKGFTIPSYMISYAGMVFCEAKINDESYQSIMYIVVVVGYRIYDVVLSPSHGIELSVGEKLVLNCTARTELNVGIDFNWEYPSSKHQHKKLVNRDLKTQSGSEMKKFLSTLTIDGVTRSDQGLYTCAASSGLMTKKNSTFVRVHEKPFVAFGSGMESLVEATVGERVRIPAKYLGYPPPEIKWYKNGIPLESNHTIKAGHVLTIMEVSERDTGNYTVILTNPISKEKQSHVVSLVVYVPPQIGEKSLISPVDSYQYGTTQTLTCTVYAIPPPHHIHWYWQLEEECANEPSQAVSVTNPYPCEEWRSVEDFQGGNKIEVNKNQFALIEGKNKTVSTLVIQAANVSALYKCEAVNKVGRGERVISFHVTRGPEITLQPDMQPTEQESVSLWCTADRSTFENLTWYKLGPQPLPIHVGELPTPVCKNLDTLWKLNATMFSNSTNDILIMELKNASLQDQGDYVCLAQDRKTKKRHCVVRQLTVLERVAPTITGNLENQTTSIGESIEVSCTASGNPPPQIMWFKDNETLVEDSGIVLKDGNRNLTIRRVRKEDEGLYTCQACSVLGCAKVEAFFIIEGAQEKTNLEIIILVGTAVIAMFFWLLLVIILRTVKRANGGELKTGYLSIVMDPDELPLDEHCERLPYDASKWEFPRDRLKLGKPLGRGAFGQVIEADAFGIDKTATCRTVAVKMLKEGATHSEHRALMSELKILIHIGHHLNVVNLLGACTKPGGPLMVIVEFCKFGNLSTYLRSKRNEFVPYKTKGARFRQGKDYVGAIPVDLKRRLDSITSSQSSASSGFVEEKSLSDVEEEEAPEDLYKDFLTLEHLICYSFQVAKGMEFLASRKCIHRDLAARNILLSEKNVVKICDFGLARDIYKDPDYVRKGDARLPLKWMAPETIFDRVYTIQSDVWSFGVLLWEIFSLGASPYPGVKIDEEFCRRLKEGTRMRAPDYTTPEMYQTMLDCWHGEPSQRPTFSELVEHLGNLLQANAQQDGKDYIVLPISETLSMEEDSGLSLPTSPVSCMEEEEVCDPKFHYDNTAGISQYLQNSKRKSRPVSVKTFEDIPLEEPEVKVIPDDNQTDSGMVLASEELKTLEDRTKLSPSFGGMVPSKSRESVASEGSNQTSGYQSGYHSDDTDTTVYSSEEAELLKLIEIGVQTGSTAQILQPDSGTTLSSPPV

[12] = molecular target: Epidermal growth factor receptor (Homo sapiens) (UniProt P00533); assay: Inhibition of EGFR (unknown origin) at 1 uM by kinase-glo luminescent assay relative to control
Sequence of Epidermal growth factor receptor (Homo sapiens) (P00533 whole entry): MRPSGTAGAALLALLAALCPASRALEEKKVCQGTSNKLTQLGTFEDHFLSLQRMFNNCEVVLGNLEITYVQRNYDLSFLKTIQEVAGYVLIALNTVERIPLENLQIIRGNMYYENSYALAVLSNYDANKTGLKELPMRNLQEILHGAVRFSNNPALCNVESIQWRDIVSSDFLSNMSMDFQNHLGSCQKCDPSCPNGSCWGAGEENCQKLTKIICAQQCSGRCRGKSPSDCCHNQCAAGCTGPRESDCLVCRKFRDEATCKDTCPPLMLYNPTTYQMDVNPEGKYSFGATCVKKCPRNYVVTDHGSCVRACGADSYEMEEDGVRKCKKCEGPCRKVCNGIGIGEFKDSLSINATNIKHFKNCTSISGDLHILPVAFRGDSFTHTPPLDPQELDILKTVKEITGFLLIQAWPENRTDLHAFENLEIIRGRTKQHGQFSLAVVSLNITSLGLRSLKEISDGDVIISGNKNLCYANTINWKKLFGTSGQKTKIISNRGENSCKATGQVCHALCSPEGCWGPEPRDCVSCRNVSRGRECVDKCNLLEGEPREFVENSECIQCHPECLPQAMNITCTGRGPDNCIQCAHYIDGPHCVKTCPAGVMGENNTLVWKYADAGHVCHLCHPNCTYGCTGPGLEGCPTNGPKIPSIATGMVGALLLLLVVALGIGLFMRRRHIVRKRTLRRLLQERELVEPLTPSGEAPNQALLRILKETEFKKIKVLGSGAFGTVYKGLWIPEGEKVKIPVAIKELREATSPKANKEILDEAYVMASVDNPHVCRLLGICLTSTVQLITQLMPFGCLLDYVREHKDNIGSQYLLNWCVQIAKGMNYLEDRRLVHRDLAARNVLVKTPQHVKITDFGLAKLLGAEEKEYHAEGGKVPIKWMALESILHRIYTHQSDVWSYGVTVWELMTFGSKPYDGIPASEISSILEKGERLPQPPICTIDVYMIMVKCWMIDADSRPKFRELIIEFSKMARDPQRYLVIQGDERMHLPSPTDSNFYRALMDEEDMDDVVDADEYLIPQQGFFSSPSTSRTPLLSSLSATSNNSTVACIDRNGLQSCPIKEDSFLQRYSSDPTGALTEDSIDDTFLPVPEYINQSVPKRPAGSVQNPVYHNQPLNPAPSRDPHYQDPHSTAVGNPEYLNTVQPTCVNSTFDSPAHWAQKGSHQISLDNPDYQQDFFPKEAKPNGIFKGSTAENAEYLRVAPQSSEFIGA

[13] = Cytotoxicity against human L02 cells assessed as inhibition of cell growth incubated for 72 hrs by MTT assay; assay type: toxicity, cell-based
[14] = molecular target: T2, Serine/threonine-protein kinase mTOR (Homo sapiens, UniProt P42345); assay: Inhibition of mTOR (unknown origin) at 1 uM by kinase-glo luminescent assay relative to control
Homo sapiens = species: Homo sapiens; assay: Selectivity index, ratio of IC50 for inhibition of PI3Kalpha (unknown origin) to IC50 for inhibition of mTOR (unknown origin) by kinase glo luminescent assay
[15] = molecular target: T2, Serine/threonine-protein kinase mTOR; assay: Inhibition of mTOR (unknown origin) by kinase-glo luminescent assay
[16] = Hemolytic activity in 2% sheep RBC assessed as hemolysis at 16 to 256 ug/ml incubated for 3 hrs; assay type: toxicity, cell-based, Ovis aries; settings: erythrocyte, dose 16-256 µg/ml
[17] = molecular target: T1, Phosphatidylinositol 4,5-bisphosphate 3-kinase catalytic subunit alpha isoform; assay: Inhibition of PI3Kalpha in human MCF7 cells assessed as decrease in PI3Kalpha gene expression incubated for 24 hrs by fluorescence quantitative PCR assay; assay type: cell-based; settings: dose 0.8-1.6 µM
[18] = Homo sapiens, NCI-H2228, 72 h, read-out: IC50

| IC50 (A549) [µM] | IC50 (MCF7) [µM] | IC50 (HeLa [4]) [µM] | IC50 (NCI-H1975) [µM] | IC50 (HeLa [5]) [µM] | IC50 (NCI-H460) [µM] | IC50 [8] [µM] | inhibition [9] [%] | inhibition [14] [%] | Compound | Ratio IC50 [1] | IC50 [2] [µM] | IC50 [3] [µM] | Ratio IC50 [6] | Ratio IC50 [7] | other results |
| --- | --- | --- | --- | --- | --- | --- | --- | --- | --- | --- | --- | --- | --- | --- | --- |
| 20.5 | 9.11 | 22.6 | 0.11 | 31.2 | > 100 |  |  |  | CS(=O)(=O)N1CCN(Cc2ccc(-c3nc(-c4ccc(NC(=O)NN5CCOCC5)cc4)nc(N4CCOCC4)n3)s2)CC1 | 186.72 | 15.9 | 26.9 | 1.38 | 0.34 |  |
| 48.9 | 20.1 | 38.5 | > 100 | 7.58 | 14.3 | 1.79 | 47.7 |  | CS(=O)(=O)N1CCN(Cc2ccc(-c3nc(-c4ccc(NC(=O)Nc5ncc[nH]5)cc4)nc(N4CCOCC4)n3)s2)CC1 |  | 22.6 | > 100 |  |  | IC50 (NCI-H2228; nci-h2228): Not Active |
| 0.11 | 1.05 | 2.07 | 0.16 | 2.36 | 3.21 | 0.299 | 80.1 |  | Cn1ccc(NC(=O)Nc2ccc(-c3nc(-c4ccc(CN5CCN(S(C)(=O)=O)CC5)s4)nc(N4CCOCC4)n3)cc2)n1 |  | 1.06 | 0.24 |  |  | inhibition [10]: 1.02%; inhibition [11]: inactive; inhibition [12]: inactive; IC50 at 72 h [13]: > 100 µM |
| 2.82 | 15.2 | > 100 | > 100 | 48.5 | > 100 |  |  |  | CS(=O)(=O)N1CCN(Cc2ccc(-c3nc(-c4ccc(NC(=O)Nc5nn[nH]n5)cc4)nc(N4CCOCC4)n3)s2)CC1 |  | > 100 | > 100 |  |  |  |
| 7.08 | 5.87 | 0.021 | 8.22 | 18.2 | 25.4 | 2.36 | 20.6 | 76.6 | CS(=O)(=O)N1CCN(Cc2ccc(-c3nc(-c4ccc(NC(=O)Nc5cnccn5)cc4)nc(N4CCOCC4)n3)s2)CC1 | 0.86 | 15.8 | > 100 | 912.5 |  | IC50 (NCI-H2228; [18]): 10.3 µM; Ratio IC50 (Homo sapiens): 14.7; IC50 [15]: 0.16 µM |
| 3.62 | 1.8 | 0.23 | 5.27 | 4.3 | 11.5 |  | 87.2 | 91.1 | CS(=O)(=O)N1CCN(Cc2ccc(-c3nc(-c4ccc(NC(=O)Nc5ccn[nH]5)cc4)nc(N4CCOCC4)n3)s2)CC1 | 0.69 | 2.12 | 8.96 | 18.7 | 0.2 | inhibition [10]: 4.03%; inhibition [11]: 1.77%; inhibition [12]: 10.5%; IC50 at 72 h [13]: > 100 µM |
| 44.9 | 30.7 | > 100 | 5.53 | 28.2 | > 100 |  | 43.4 | 86.8 | CS(=O)(=O)N1CCN(Cc2ccc(-c3nc(-c4ccc(NC(=O)Nc5ccncn5)cc4)nc(N4CCOCC4)n3)s2)CC1 | 8.12 | > 100 | 25.2 |  | 1.21 |  |
| 1.03 | 1.2 | 2.97 | 2.42 | 3.15 | 2.68 |  | 97.8 | 90.6 | CS(=O)(=O)N1CCN(Cc2cc3nc(-c4cccc5[nH]ncc45)nc(N4CCOCC4)c3s2)CC1 [PICTILISIB] |  | 1.25 | 3.13 |  |  | inhibition [10]: inactive; IC50 (NCI-H2228; [18]): 1.07 µM; inhibition [11]: inactive; inhibition [12]: inactive |
| 16.4 | 0.42 | 31.7 | 9.87 | 45.1 | 10.6 | 1.33 | 47.5 | 72.7 | Cn1nccc1NC(=O)Nc1ccc(-c2nc(-c3ccc(CN4CCN(S(C)(=O)=O)CC4)s3)nc(N3CCOCC3)n2)cc1 | 1.67 | 15.9 | 8.61 | 1.43 | 0.048 | Ratio IC50 (Homo sapiens): 2.33; IC50 [15]: 0.571 µM |
| 50.4 | 1.82 | > 100 | > 100 | 42.8 | > 100 | 1.74 | 46.8 |  | CS(=O)(=O)N1CCN(Cc2ccc(-c3nc(-c4ccc(NC(=O)Nn5cnnc5)cc4)nc(N4CCOCC4)n3)s2)CC1 |  | 26.9 | > 100 |  |  |  |
| 10.1 | 3.34 | 9.27 | 0.076 | 6.01 | 7.57 | 3 | 16.1 |  | CS(=O)(=O)N1CCN(Cc2ccc(-c3nc(-c4ccc(NC(=O)Nc5ccccn5)cc4)nc(N4CCOCC4)n3)s2)CC1 |  | 3.52 | 10.5 |  |  |  |
| 10.8 | 7.61 | 28 | 6.78 | 15 | > 100 |  |  |  | CS(=O)(=O)N1CCN(Cc2ccc(-c3nc(-c4ccc(NC(=O)Nc5cncnc5)cc4)nc(N4CCOCC4)n3)s2)CC1 | 1.59 | 20.1 | 14.9 | 0.54 | 0.51 |  |
| 0.47 | 0.3 | 0.37 | 0.008 | 1.04 | 2.31 | 0.177 | 88.2 |  | CS(=O)(=O)N1CCN(Cc2ccc(-c3nc(-c4ccc(NC(=O)Nc5ccncc5)cc4)nc(N4CCOCC4)n3)s2)CC1 |  | 0.25 | 1.25 |  |  | inhibition [10]: 18.2%; IC50 (NCI-H2228; [18]): 0.22 µM; Activity [16]: Non-Toxic; inhibition [11]: 1.74%; inhibition [17]: Dose-Dependent Effect; inhibition [12]: 6.24%; IC50 at 72 h [13]: > 100 µM |
| 13.1 | 12.5 | 12.6 | 12.7 | 15.2 | 17.9 |  | 91.3 | 93 | CS(=O)(=O)N1CCN(Cc2ccc(-c3nc(-c4ccc(NC(=O)Nc5ncccn5)cc4)nc(N4CCOCC4)n3)s2)CC1 | 1.03 | > 100 | > 100 | 1.21 |  |  |
| 14.2 | 0.11 | 10.5 | 31.2 | 2.14 | 20.5 |  | 93 | 96.4 | CS(=O)(=O)N1CCN(Cc2ccc(-c3nc(-c4ccc(NC(=O)Nc5ccc6[nH]ncc6c5)cc4)nc(N4CCOCC4)n3)s2)CC1 | 0.46 | 12.6 | 15.1 | 0.2 | 0.007 |  |
| 53.9 | > 100 | > 100 | 7.86 | 13.8 | > 100 |  |  |  | Cn1ccnc1NC(=O)Nc1ccc(-c2nc(-c3ccc(CN4CCN(S(C)(=O)=O)CC4)s3)nc(N3CCOCC3)n2)cc1 |  |  | > 100 |  |  |  |
| 13.2 | 13 | 21.4 | 22.5 | 25.5 | > 100 |  | 94.5 | 97.3 | CS(=O)(=O)N1CCN(Cc2ccc(-c3nc(-c4ccc(NC(=O)Nc5nc[nH]n5)cc4)nc(N4CCOCC4)n3)s2)CC1 | 0.59 | 12.3 | 18.2 | 1.19 | 0.71 |  |
| 2.38 | 7.46 | 17.2 | 40.5 | 17.1 | > 100 | 8.97 | 9 | 17.1 | CS(=O)(=O)N1CCN(Cc2ccc(-c3nc(-c4ccc(NC(=O)NC5CN6CCC5CC6)cc4)nc(N4CCOCC4)n3)s2)CC1 (stereo not drawn) | 0.059 | 22.9 | 21.5 | 0.99 | 0.35 | Ratio IC50 (Homo sapiens): 1.13; IC50 [15]: 7.96 µM |

From ChEMBL document CHEMBL5236659, “Design, synthesis and antitumor activity of novel thiophene- triazine derivatives bearing arylurea unit as potent PI3K/mTOR inhibitorss” (Bioorg Med Chem, 2023)
